pIC50: −log10 of the molar value. Structures can show the parent of a compound that is named as a salt.
Biological target: Steroidogenic factor 1 (Homo sapiens, UniProt Q13285)
Experiment: SF-1 inhibitors in Gal4 reporter counter-screen, dose response, counter-screen for RORA inhibitor project, cell-based, CHO-K1, Gal4-SF-1 LBD, luciferase luminescence (AID 611)
Details: not given

Sequence of Steroidogenic factor 1 (Q13285 whole entry, the tested form may be a part): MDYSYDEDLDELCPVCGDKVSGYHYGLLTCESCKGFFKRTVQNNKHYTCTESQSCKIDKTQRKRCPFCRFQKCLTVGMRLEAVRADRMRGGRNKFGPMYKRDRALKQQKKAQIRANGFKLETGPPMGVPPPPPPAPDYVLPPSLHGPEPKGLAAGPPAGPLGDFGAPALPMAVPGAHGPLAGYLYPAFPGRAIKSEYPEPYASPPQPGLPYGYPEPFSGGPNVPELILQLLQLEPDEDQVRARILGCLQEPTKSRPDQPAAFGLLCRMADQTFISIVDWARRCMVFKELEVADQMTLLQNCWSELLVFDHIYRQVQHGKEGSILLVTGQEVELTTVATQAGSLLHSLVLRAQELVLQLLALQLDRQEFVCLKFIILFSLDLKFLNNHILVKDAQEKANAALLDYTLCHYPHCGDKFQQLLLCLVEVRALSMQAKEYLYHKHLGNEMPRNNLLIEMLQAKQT

SMILES	pIC50
Cc1oc2nc(SCC(=O)NCc3cccnc3)nc(N)c2c1C [2-(4-amino-5,6-dimethylfuro[2,3-d]pyrimidin-2-yl)sulfanyl-N-(pyridin-3-ylmethyl)acetamide]	< 4.00
COc1ccc(-c2cc3nc4n(c(=O)c3s2)CCC4)cc1 [2-(4-methoxyphenyl)-6,7-dihydropyrrolo[1,2-a]thieno[3,2-d]pyrimidin-9(5H)-one]	< 5.44
COc1ccc(-c2cc3nc4n(c(=O)c3s2)CCOC4)cc1 [2-(4-methoxyphenyl)-7,8-dihydro-5H-thieno[1,2]pyrimido[4,5-a][1,4]oxazin-10-one]	5.11
CC1CCN(c2nc3ccc(C(=O)O)cc3s2)CC1 [2-(4-methyl-1-piperidinyl)-1,3-benzothiazole-6-carboxylic acid]	6.48
c1c2c(cc3sc(N4CCOCC4)nc13)OCCO2 [2-(4-morpholinyl)-6,7-dihydro-[1,4]dioxino[2,3-f][1,3]benzothiazole]	< 5.44
CCOc1ccc(-c2nc(CSCC(=O)NCc3ccco3)c(C)o2)cc1 [2-({[2-(4-ethoxyphenyl)-5-methyl-1,3-oxazol-4-yl]methyl}thio)-N-(2-furylmethyl)acetamide]	6.59
CCOc1ccc(-c2nc(CSCC(=O)NCCN3CCOCC3)c(C)o2)cc1 [2-({[2-(4-ethoxyphenyl)-5-methyl-1,3-oxazol-4-yl]methyl}thio)-N-(2-morpholin-4-ylethyl)acetamide]	5.40
CCc1ccc(-c2nc(CSCC(=O)NCCCN3CCCC3=O)c(C)o2)cc1 [2-({[2-(4-ethylphenyl)-5-methyl-1,3-oxazol-4-yl]methyl}thio)-N-[3-(2-oxopyrrolidin-1-yl)propyl]acetamide]	5.25
COc1cc(CC(NC(C)=O)C(=O)NC2CCN(c3nc(C)cc(C)c3C#N)CC2)cc(OC)c1 (configuration not stated) [2-Acetylamino-N-(3'-cyano-4',6'-dimethyl-3,4,5,6-tetrahydro-2H-[1,2']bipyridinyl-4-yl)-3-(3,5-dimethoxy-phenyl)-propionamide]	< 4.00
Nc1nc(Cl)nc2c1ncn2[C@H]1C[C@H](O)[C@@H](CO)O1 [2-CHLORO-2'-DEOXYADENOSINE]	6.18
CN(C)c1nc(N)nc(CSc2nnnn2-c2cccc3ccccc23)n1 [2-N,2-N-dimethyl-6-[(1-naphthalen-1-yltetrazol-5-yl)sulfanylmethyl]-1,3,5-triazine-2,4-diamine]	< 4.00
CCCCNc1cc(C)nc(NCc2ccccc2)n1 [2-N-benzyl-4-N-butyl-6-methylpyrimidine-2,4-diamine]	5.03
Cc1cc(C(=O)CN2C(=O)c3ccccc3S2(=O)=O)c(C)n1CC1CCCO1 (configuration not stated) [2-[2-[2,5-dimethyl-1-(2-oxolanylmethyl)-3-pyrrolyl]-2-oxoethyl]-1,1-dioxo-1,2-benzothiazol-3-one]	5.25
CN1CCN(C(=O)COc2ccc(-c3nc4ccccc4s3)cc2)CC1 [2-[4-(1,3-benzothiazol-2-yl)phenoxy]-1-(4-methyl-1-piperazinyl)ethanone]	5.28
CCOC(=O)CS(=O)(=O)c1nc(-c2ccc(F)cc2)cc(C(F)(F)F)n1 [2-[4-(4-fluorophenyl)-6-(trifluoromethyl)pyrimidin-2-yl]sulfonylacetic acid ethyl ester]	5.05
Cc1cc(N2CCN(c3nc4ccccc4s3)CC2)n2ncnc2n1 [2-[4-(5-methyl-[1,2,4]triazolo[1,5-a]pyrimidin-7-yl)-1-piperazinyl]-1,3-benzothiazole]	5.04
CCOC(=O)CS(=O)(=O)c1nc(-c2ccccc2)cc(C(F)(F)F)n1 [2-[4-phenyl-6-(trifluoromethyl)pyrimidin-2-yl]sulfonylacetic acid ethyl ester]	5.01

SMILES	pIC50
c1ccc(-c2noc(-c3ccc4c(c3)OCO4)n2)nc1 [2-[5-(1,3-benzodioxol-5-yl)-1,2,4-oxadiazol-3-yl]pyridine]	5.90
c1ccc(-c2noc(-c3ccc4ccccc4c3)n2)nc1 [2-[5-(2-naphthyl)-1,2,4-oxadiazol-3-yl]pyridine]	6.06
Clc1cccc(-c2nc(-c3ccccn3)no2)c1 [2-[5-(3-Chloro-phenyl)-[1,2,4]oxadiazol-3-yl]-pyridine]	5.27
O=S1(=O)C=C(Sc2nc3ccccc3s2)c2ccccc21 [2-[(1,1-dioxido-1-benzothien-3-yl)thio]-1,3-benzothiazole]	5.57
O=C(CSc1nnnn1C1CC2CCC1C2)Nc1ccnc2ccccc12 (configuration not stated) [2-[(1-bicyclo[2.2.1]hept-2-yl-1H-tetrazol-5-yl)thio]-N-4-quinolinylacetamide]	6.35
Cc1cc(C=c2sc3nc4ccccc4n3c2=O)c(C)n1-c1ccccn1 [2-[(2,5-dimethyl-1-pyridin-2-yl-pyrrol-3-yl)methylidene]-[1,3]thiazolo[3,2-a]benzimidazol-1-one]	< 8.30
N#Cc1c(NC(=O)CSc2nc(N)cc(=O)[nH]2)sc2c1CCCCCC2 [2-[(6-amino-4-oxo-1H-pyrimidin-2-yl)sulfanyl]-N-(3-cyano-4,5,6,7,8,9-hexahydrocycloocta[b]thiophen-2-yl)acetamide]	4.84
COc1cccc(NC(=O)CSc2nnc(-c3cc(C)n(-c4ccccc4)c3C)o2)c1 [2-[[5-(2,5-dimethyl-1-phenyl-3-pyrrolyl)-1,3,4-oxadiazol-2-yl]thio]-N-(3-methoxyphenyl)acetamide]	5.43
CCOC(=O)c1c(N)sc(C(=O)Nc2ccc3c(c2)OCO3)c1C [2-amino-5-(1,3-benzodioxol-5-ylcarbamoyl)-4-methyl-thiophene-3-carboxylic acid ethyl ester]	5.08
CCc1nn2cc(-c3ccccc3)nc2s1 [2-ethyl-6-phenyl-imidazo[2,1-b][1,3,4]thiadiazole]	< 5.44
CCCc1ccc(-c2ccc(F)c(N)c2)nc1 [2-fluoranyl-5-(5-propylpyridin-2-yl)aniline]	5.22
c1coc(CNc2ncnc3ccccc23)c1 [2-furfuryl(quinazolin-4-yl)amine;hydrochloride]	4.76
c1ccc(-c2cn3c4c(sc3n2)CCCC4)cc1 [2-phenyl-5,6,7,8-tetrahydroimidazo[2,1-b][1,3]benzothiazole]	5.37
N#CC(C#N)=c1ccc2c(c1)NC1(CCCCC1)N=2 [2-spiro[3H-benzimidazole-2,1'-cyclohexane]-5-ylidenepropanedinitrile]	5.04
Cc1ccc(-c2nc3nc4ccccc4nc3n2Cc2ccco2)cc1 [3-(2-furanylmethyl)-2-(4-methylphenyl)imidazo[4,5-b]quinoxaline]	< 4.48
CCOc1ccc(-c2noc(CCC(=O)O)n2)cc1 [3-(3-p-phenetyl-1,2,4-oxadiazol-5-yl)propionic acid]	5.07

Same assay, conditions: inactive by the depositor's call

SMILES	pIC50
O=C(CSc1nnc(Cn2nnc3ccccc32)o1)N(Cc1ccc(F)cc1)c1ccccc1 [2-(5-Benzotriazol-1-ylmethyl-[1,3,4]oxadiazol-2-ylsulfanyl)-N-(4-fluoro-benzyl)-N-phenyl-acetamide]	4.96
Nc1ccc2oc(-c3cc(Br)ccc3Cl)nc2c1 [2-(5-bromanyl-2-chloranyl-phenyl)-1,3-benzoxazol-5-amine]	4.18
Cc1cc(C)nc(SC2=CS(=O)(=O)c3ccccc32)n1 [2-[(1,1-dioxido-1-benzothien-3-yl)thio]-4,6-dimethylpyrimidine]	4.89
Cc1cccc2cc3c(nc12)S/C(=N\CC1CCCO1)N(Cc1ccco1)C3 (configuration not stated) [3-(2-furanylmethyl)-9-methyl-N-(2-oxolanylmethyl)-4H-[1,3]thiazino[6,5-b]quinolin-2-imine]	4.20

Source: BindingDB's records for doi:10.7270/Q2PR7TCX (The Scripps Research Institute Molecular Screening Center, 2007)
